Results as given in ChEMBL document CHEMBL1157539, “Thousands of chemical starting points for antimalarial lead identification” (Nature, 2010).

These compounds were tested on Plasmodium falciparum (assay: GSK_TCMDC: Inhibition of Plasmodium falciparum 3D7 in whole erythrocytes, using parasite LDH activity as an index of growth.). Details: Plasmodium falciparum, 3D7.
Type: functional, organism-based
`N=C(N)c1ccc(OCc2cccc(COc3ccc(C(=N)N)cc3I)c2)c(I)c1` gave an XC50 of 337 nM. `COc1ccc(-c2nc(NC(=O)CS(=O)(=O)c3ccc(OC)cc3)sc2C)cc1` showed an XC50 of 302 nM. `COc1ccc(-c2cc3ncn(CC(=O)N4CCN(c5cccc(OC)c5)CC4)c(=O)c3s2)cc1` showed an XC50 of 1060 nM. In the case of `CCN(CC)CCCOc1ccc(Nc2nccc(-c3c(-c4cccc(NC(=O)c5c(F)cccc5F)c4)nn4ccccc34)n2)cc1F`, the XC50 is reported as 407 nM. `C=CCN1CCC(N(Cc2cccc(Oc3ccccc3)c2)C(=O)C(c2ccccc2)c2ccccc2)CC1` gave an XC50 of 1140 nM. `Cc1[nH]c(C)c(-c2ccc(Nc3ccc(C(F)(F)F)cn3)cc2)c(=O)c1Br` gave an XC50 of 26 nM. `Cc1cccc(-c2ccc3c(c2)CC(NCc2cccc(-n4ccnc4)c2)C3)c1` (stereo unspecified) showed an XC50 of 874 nM. Compound `NC1CCCN(Cc2ccc(-c3ccc(-c4nc5ccccc5[nH]4)s3)cc2)C1` (stereo unspecified) has an XC50 of 672 nM. `CCNC(=O)c1cc(S(=O)(=O)N2CCN(c3ccccn3)CC2)cs1` gave an XC50 of 866 nM. With `COc1c(C2CCN(CCCCNC(=O)c3cccc(-c4ccc(C(F)(F)F)cc4)c3)CC2)ccc2c1CCCC2` the XC50 was 777 nM. Compound `Clc1ccc(CNc2ccnc(NCc3ccc4c(c3)OCCCO4)n2)c(Cl)c1` has an XC50 of 994 nM. `Cn1c(N)c(N=O)c(=O)[nH]c1=O` gave an XC50 of 176 nM. For `Cc1nc2nc(N)nc(N)c2c(C)c1Cc1c(Cl)cccc1Cl`, the XC50 was 48.9 nM. `COc1ccc(-c2nnc(Sc3ccc(C#N)c([N+](=O)[O-])c3)n2CC(C)C)cc1` gave an XC50 of 821 nM. `CCCCCCCN(Cc1ccc(OC(C)(C)C(=O)OCC)cc1)C(=O)Nc1ccccc1OCC` showed an XC50 of 1030 nM. With `COc1ccc2nccc([C@@H](O)CN3CCC(NCc4nc5ccc(F)cc5[nH]4)CC3)c2c1` the XC50 was 732 nM. Work on `Clc1ccc2c(NN=Cc3cccnc3)ccnc2c1` yielded an XC50 of 696 nM. Work on `C=CCn1c(SCC(=O)Nc2cc(C)ccc2OC)nc2sc(C)cc2c1=O` yielded an XC50 of 417 nM. `CCN(CCCN1CCCCC1)c1cc(C)nc(Nc2ccc3c(c2)CCC3)n1` was tested, and the XC50 was 394 nM. With `CN(Cc1ccc(C#N)cc1)C1CCN(c2cc(NC(=O)c3ccc(F)cc3)ccn2)CC1` the XC50 was 1430 nM. In the case of `CCOC(=O)NC1=NC(=N)N(OCCCOc2cc(Cl)c(Cl)cc2Cl)C(C)(C)N1`, the XC50 is reported as 3.2 nM. For `COc1cc(Nc2nccc(Nc3ccc4c(C)n[nH]c4c3)n2)cc2ccccc12`, the XC50 was 699 nM. With `COc1cc2c(cc1NC(=O)CN1CCN(C(=O)c3ccco3)CC1)oc1ccccc12` the XC50 was 422 nM. `CC(=O)Nc1cccc(/C=C/C(=O)N2CCC(N3CCCCC3)CC2)c1` showed an XC50 of 1050 nM. `Cc1cccc(Cl)c1S(=O)(=O)Nc1cccc(CCN2CCC(N3CCCCC3)CC2)c1` was tested, and the XC50 was 1110 nM. For `CC1(C)N=C(N)N=C(NOCc2ccc(Cl)c(Cl)c2)N1`, the XC50 was 228 nM. `Cc1cc(=NN=Cc2ccc(F)cc2)c2cc(F)ccc2[nH]1` showed an XC50 of 644 nM. `O=C(Nc1cccc(-c2cc(-c3c(Cl)cccc3Cl)no2)c1)c1cnc2ccccc2c1` gave an XC50 of 1100 nM. `COc1cccc(O)c1CNCC(O)c1cccc(C(F)(F)F)c1` (stereo unspecified) was tested, and the XC50 was 945 nM. `O=[N+]([O-])c1cccc(CNCC2CCN(CCc3ccccc3)CC2)c1` gave an XC50 of 785 nM. With `FC(F)(F)c1ccc2[nH]ccc(=NN=Cc3cccnc3)c2c1` the XC50 was 625 nM. With `Cc1cccc(C)c1CNc1nc(N2CCOCC2)cc2c(C)c(C)[nH]c12` the XC50 was 1240 nM. For `COc1cc(Cl)c(C)cc1-n1cc(C(=O)c2cc(Br)ccc2O)cc(C#N)c1=O`, the XC50 was 874 nM. Compound `Cc1nnsc1C(=O)Nc1ccc(-c2cccc(-c3nc4cc(F)ccc4[nH]3)c2)cc1` has an XC50 of 766 nM. For `Brc1cc(CNCCCNc2nc3ccccc3[nH]2)sc1Br`, the XC50 was 221 nM. For `CC1(C)CCNc2cc(NC(=O)c3ccc(-c4ncccc4C(F)(F)F)cc3)ccc21`, the XC50 was 903 nM. For `Nc1ccc(-c2nc3cc(Oc4ccc5[nH]c(-c6ccc(N)cc6)nc5c4)ccc3[nH]2)cc1`, the XC50 was 719 nM. In the case of `Cc1ccc(Cn2c(N3CCC(C(=O)NCc4ccccn4)CC3)nc3ccccc32)cc1`, the XC50 is reported as 408 nM. `OCc1ccc(-c2cncc(Nc3cccc(Cl)c3)c2)cc1` showed an XC50 of 74.3 nM. For `O=C(Nc1ccc(Cl)cc1)c1cccc2nc(C(F)(F)F)[nH]c12`, the XC50 was 764 nM. Compound `CC(C)(C)CN1C(=O)C(c2ccccc2)(c2ccccc2)N=C1N` has an XC50 of 515 nM. With `COCCn1c(-c2nc(-c3ccc(F)cc3)cnc2N)nc2ccccc21` the XC50 was 872 nM. `COc1ccccc1C(=O)Nc1ccc(Nc2nc(C)cc(N(C)C)n2)cc1` gave an XC50 of 789 nM. `Clc1ccc(-c2cnc3ccc(NCCc4cccnc4)nn23)cc1` was tested, and the XC50 was 857 nM. In the case of `Cc1noc(-c2ccccc2)c1NC(=O)N1CCN(CCCCCCNC(=O)/C=C/c2ccc(Cl)c(Cl)c2)CC1`, the XC50 is reported as 884 nM. Work on `CCCCCCNC(=O)C(N)CCCC(N)C(=O)NCCCCCC` (stereo unspecified) yielded an XC50 of 162 nM. Compound `NS(=O)(=O)c1ccccc1Nc1nc(Nc2ccc(N3CCOCC3)cc2)nc2c1CCC2` has an XC50 of 667 nM. `Clc1ccccc1CCNCC1CCN(CC2CCCCC2)CC1` showed an XC50 of 692 nM. Work on `CN1CCCC(CN2CCN(Cc3cccc(-c4ccc(-c5nc6ccccc6[nH]5)cc4)c3)CC2)C1` (stereo unspecified) yielded an XC50 of 157 nM. `COc1ccc2[nH]ccc(=NN=Cc3ccc(F)cc3)c2c1` showed an XC50 of 720 nM. Compound `Oc1ccc(CCNc2nc(NCc3ccccc3-c3ccc(C(F)(F)F)cc3)nc(NC3CCNCC3)n2)cc1` has an XC50 of 924 nM. Work on `CN(c1cc(NC(=O)c2ccc(F)cc2)ccn1)C1CCN(Cc2cccc(F)c2)CC1` yielded an XC50 of 495 nM. With `CC(C)(C)c1ccc(Cc2cccc3nc(N)nc(N)c23)cc1` the XC50 was 834 nM. `CCCNCc1ccc(-c2ccc(CN(C(=O)c3nn(-c4ccccc4)nc3C)C3CCOCC3)cc2)nc1` was tested, and the XC50 was 144 nM. For `CC(C)Nc1nc(NCCc2c[nH]cn2)nc(Nc2ccc(Oc3ccccc3)cc2)n1`, the XC50 was 887 nM. `CCCC(C)NC(=O)[C@H](CC1CCCCC1)NC(=O)c1ccc(O)c(-c2ccc(OC)cc2)c1` (stereo partly specified) gave an XC50 of 1130 nM. With `Fc1cc(Cl)ccc1Nc1ccnc2cc(-c3ccc(CNCCN4CCOCC4)o3)ccc12` the XC50 was 277 nM. Compound `CC1(C)NC(N)=NC(=N)N1OCCCNC(=O)c1ccc([N+](=O)[O-])cc1` has an XC50 of 3.2 nM. `CN(C)CCC(O)C=C(c1ccc(Cl)cc1)c1ccc(Cl)cc1` (stereo unspecified) showed an XC50 of 948 nM. Compound `O=C(Nc1cccc(CN2CCN(C(=O)c3cccs3)CC2)c1)c1cccs1` has an XC50 of 782 nM. `Cc1cc(=NN=Cc2ccc(F)cc2)c2ccc(F)cc2[nH]1` gave an XC50 of 950 nM. In the case of `CCN(c1ccccc1)S(=O)(=O)c1ccc(OC)c(NC(=O)c2cccc(C(F)(F)F)c2)c1`, the XC50 is reported as 881 nM. Work on `CCCCCCCN1CC[C@@H](C[C@H](N)Cc2ccnc3ccc(OC)cc23)[C@@H](CC)C1` yielded an XC50 of 1070 nM. `COc1ccc(-c2cnc3[nH]cc(-c4ccc(C(=O)O)cc4)c3c2)cn1` was tested, and the XC50 was 541 nM. `CCCCCCCC1CC(CC(=O)Nc2ccnc3ccc(OC)cc23)CN1C(=O)OC(C)(C)C` (stereo unspecified) was tested, and the XC50 was 714 nM. `Clc1ccc2c(NN=Cc3ccco3)ccnc2c1` gave an XC50 of 1100 nM. Work on `Cc1cccc2nc(-c3cccc(-c4ccc(CNCc5cccc(N)c5)cc4)c3)[nH]c12` yielded an XC50 of 260 nM. Compound `COc1ccc(N2CCN(CCCCNC(=O)c3ccc(NC(=O)c4cc(Cl)cc(Cl)c4)cc3)CC2)c(OC)c1` has an XC50 of 299 nM. `Cc1cccc2nc(-c3cccc(-c4ccc(NC(=O)CC5NC(=O)c6ccccc65)cc4)c3)[nH]c12` (stereo unspecified) gave an XC50 of 289 nM. Compound `N#Cc1ccc(Cn2ccc3c4c(N)nc(N)nc4ccc32)cc1` has an XC50 of 3.29 nM. Compound `CCc1c[nH]c2c(N3CCCS3(=O)=O)cc(C(=O)N[C@@H](Cc3ccccc3)[C@H](O)CNC(C)(C)c3cccc(C(F)(F)F)c3)cc12` has an XC50 of 228 nM. `CCN(CCCN1CCCCC1)c1cc(C)nc(Nc2cc(Cl)cc(Cl)c2)n1` gave an XC50 of 286 nM. `CN(C)CCN(C)Cc1ccc(-c2ccc(NC(=O)c3cccc(Cl)c3)cc2)cc1` was tested, and the XC50 was 1140 nM. With `COc1ccc2nccc([C@@H](O)CN3CCC(NC(=O)c4ccc5nc(-n6cccc6)sc5c4)CC3)c2c1` the XC50 was 1000 nM. `CC(=O)N/N=C/[C@H](CCc1ccccc1)NC(=O)[C@H](CC(C)C)NC(=O)c1ccc(F)cc1` gave an XC50 of 692 nM. `N#Cc1ccc(N(CC(=O)NCCc2ccc(F)cc2)CC2CC2)c2ccccc12` showed an XC50 of 932 nM. For `O=C(/C=C/c1ccc(Cl)c(Cl)c1)NC1CCC(CN2CCC(c3cc4ccccc4[nH]3)CC2)CC1` (stereo unspecified), the XC50 was 987 nM. Work on `CCCCCCN1CCN(Cc2cccc(NC(=O)c3cc4ccccc4o3)c2)CC1` yielded an XC50 of 909 nM. Work on `CCOc1cc(C(=O)Nc2ccc3nc(N4CCN(C)CC4)cc(C)c3c2)cc(OCC)c1OCC` yielded an XC50 of 847 nM. For `O=C(c1cc(-c2ccco2)n[nH]1)N1CCN(S(=O)(=O)c2ccc(Cl)cc2)CC1`, the XC50 was 356 nM. Work on `COc1ccc(CCNCCCCCCNCCc2ccc(-c3ccccc3)cc2)cc1OC` yielded an XC50 of 958 nM. Work on `CC(C)(C)c1ccc(-c2cc3c(ccc4nc(N)nc(N)c43)[nH]2)cc1` yielded an XC50 of 113 nM. `O=C(COc1ccc(F)cc1)NC1CCN(c2ccnc3cc(Cl)ccc23)C1` (stereo unspecified) gave an XC50 of 265 nM. With `O=C(Nc1ccc(Cn2ncc(N3CCNCC3)c(Cl)c2=O)cc1)Nc1ccc(-c2ccccc2)cc1` the XC50 was 591 nM. `CC(C)CNCc1cccc(-c2cccc(CNc3ccc4ncccc4c3)c2)c1` showed an XC50 of 947 nM. Work on `Cc1ccc2nc(C)n(C3CCN(C(=O)C4(c5ccccc5)CC4)CC3)c2c1` yielded an XC50 of 821 nM. Compound `O=C(/C=C/c1ccc(Cl)cc1)NCCCCCN1CCC(C(=O)Nc2ccc(Cl)cc2)CC1` has an XC50 of 832 nM. `O=C(Nc1ccc(Br)cc1)N(CCN1CCOCC1)CC(O)COCc1ccc(F)cc1` (stereo unspecified) gave an XC50 of 1040 nM. `O=[N+]([O-])c1ccc(/C=N/Nc2cc(-c3ccccc3)nc3ccccc23)o1` gave an XC50 of 863 nM. `CCc1c[nH]c2c(N3CCCCC3=O)cc(C(=O)N[C@@H](Cc3ccccc3)[C@H](O)CNCc3cccc(OC)c3)cc12` gave an XC50 of 169 nM. In the case of `O=[N+]([O-])c1ccc(CNCCCCCCNCc2ccc([N+](=O)[O-])c3ccccc23)c2ccccc12`, the XC50 is reported as 787 nM. For `CN1CCN(c2cc(NC(=O)c3ccc(-c4ccc(Cl)cc4)cc3)ccc2Cl)CC1`, the XC50 was 613 nM. Compound `N#Cc1ccc(-c2ccc(C(=O)Nc3ccc4c(c3)CCN(C3CCC3)CC4)nc2)cn1` has an XC50 of 1160 nM. In the case of `O=C(/C=C/c1ccc(Cl)c(Cl)c1)NCCCCCN1CCCC(C(=O)Nc2ccc(Cl)c(Cl)c2)C1` (stereo unspecified), the XC50 is reported as 785 nM. `CCCOc1ccc(CNCCCCCCNCc2ccc(OCCC)c3ccccc23)c2ccccc12` was tested, and the XC50 was 410 nM. `CCOC(=O)c1ccc(NC(=O)Nc2cccc(-c3cccc(-c4nc5ccccc5[nH]4)c3)c2)cc1` gave an XC50 of 68.7 nM. `COc1ccc2ncc(F)c(CCN3CC[C@@H](CNCc4nc5c(cc4C)SCC(=O)N5)C3)c2n1` gave an XC50 of 1150 nM. Compound `CC(=O)Nc1ccc(CN2CCC(NC(=O)c3ccc(-c4cccc(Cl)c4)s3)CC2)cc1` has an XC50 of 792 nM. Work on `COc1cc2ccccc2cc1CCNCCCCNCCc1cc2ccccc2cc1OC` yielded an XC50 of 403 nM. `CC(CON1C(N)=NC(N)=NC1(C)C)c1ccc(Cl)cc1Cl` (stereo unspecified) gave an XC50 of 3.2 nM. In the case of `CC(C)n1ncc2c(C(=O)N3CCCc4ccccc43)cc(-c3ccccc3)nc21`, the XC50 is reported as 601 nM.
